Our source for the IC50 and inhibition values is ChEMBL document CHEMBL5120807, “Recent advances in the development of active hybrid molecules in the treatment of cardiovascular diseases” (Bioorg Med Chem, 2022).

Experiment [1] in a line: Antagonist activity at beta1-adrenoceptor (unknown origin) at 1 uM. On the set-up: species or system Homo sapiens.
Experiment [2] is described as follows: Antioxidant activity assessed as ABTS radical scavenging activity. It is filed as functional.
In experiment [3] the target is Serine/threonine-protein kinase pim-1 (Homo sapiens, UniProt P11309). Description: Inhibition of human PIM1 expressed in bacterial system using histone H1 as substrate incubated for 30 mins by ADP-Glo assay kit method. (ADP-Glo turns the ADP formed in a reaction into a luminescent signal.)
Chain of Serine/threonine-protein kinase pim-1 (P11309 whole entry): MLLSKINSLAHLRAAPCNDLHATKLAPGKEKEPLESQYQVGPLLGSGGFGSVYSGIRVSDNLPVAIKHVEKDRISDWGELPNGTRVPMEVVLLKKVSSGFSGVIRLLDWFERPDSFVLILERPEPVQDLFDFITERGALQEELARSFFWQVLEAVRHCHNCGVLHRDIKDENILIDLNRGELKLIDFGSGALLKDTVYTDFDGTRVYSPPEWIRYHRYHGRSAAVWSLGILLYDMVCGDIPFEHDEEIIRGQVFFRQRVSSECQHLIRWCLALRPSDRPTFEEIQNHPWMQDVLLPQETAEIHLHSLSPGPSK
Experiment [4] addresses Dual specificity protein kinase CLK1 (Mus musculus, UniProt P22518). Nature of the experiment: Inhibition of mouse recombinant CLK1 expressed in bacterial system using GRSRSRSRSRSR as substrate incubated for 30 mins by ADP-Glo assay kit method.
Experiment [5] addresses Cholinesterase (Homo sapiens) (UniProt P06276). Nature of the experiment: Inhibition of BuChE (unknown origin) by Ellman method. The settings on record: concentration not given here.

SMILES strings stand for the structures.

Chain of Dual specificity protein kinase CLK1 (P22518 whole entry): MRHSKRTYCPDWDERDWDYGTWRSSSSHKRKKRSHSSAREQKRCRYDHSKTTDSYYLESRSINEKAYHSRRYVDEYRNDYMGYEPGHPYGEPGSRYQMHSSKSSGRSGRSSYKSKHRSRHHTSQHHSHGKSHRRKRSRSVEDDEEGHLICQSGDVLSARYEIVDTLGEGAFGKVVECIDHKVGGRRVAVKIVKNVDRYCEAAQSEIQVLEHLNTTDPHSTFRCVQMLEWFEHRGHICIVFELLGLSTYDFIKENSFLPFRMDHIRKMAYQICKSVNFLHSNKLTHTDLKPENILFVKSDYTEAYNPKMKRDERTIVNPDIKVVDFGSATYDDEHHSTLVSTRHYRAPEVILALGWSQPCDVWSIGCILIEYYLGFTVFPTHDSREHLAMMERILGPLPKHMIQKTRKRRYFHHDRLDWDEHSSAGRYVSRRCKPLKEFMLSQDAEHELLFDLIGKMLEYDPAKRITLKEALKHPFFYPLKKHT
Chain of Cholinesterase (Homo sapiens) (P06276 whole entry): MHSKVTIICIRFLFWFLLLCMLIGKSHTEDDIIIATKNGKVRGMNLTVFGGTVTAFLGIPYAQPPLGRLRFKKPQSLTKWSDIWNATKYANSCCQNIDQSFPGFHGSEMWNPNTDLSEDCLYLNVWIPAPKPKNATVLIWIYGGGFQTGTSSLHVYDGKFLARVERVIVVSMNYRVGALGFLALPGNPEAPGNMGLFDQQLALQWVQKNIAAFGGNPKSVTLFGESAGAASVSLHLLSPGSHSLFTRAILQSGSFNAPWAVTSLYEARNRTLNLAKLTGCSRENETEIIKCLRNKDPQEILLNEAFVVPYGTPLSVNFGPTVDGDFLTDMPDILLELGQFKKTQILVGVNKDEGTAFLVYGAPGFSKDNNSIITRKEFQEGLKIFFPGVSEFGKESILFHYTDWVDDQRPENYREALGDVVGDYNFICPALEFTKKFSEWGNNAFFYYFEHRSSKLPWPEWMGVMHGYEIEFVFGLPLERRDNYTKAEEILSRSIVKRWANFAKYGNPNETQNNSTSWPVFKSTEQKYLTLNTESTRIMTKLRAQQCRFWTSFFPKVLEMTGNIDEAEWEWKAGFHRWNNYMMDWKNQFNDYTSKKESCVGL

As for `COc1cc2c(cc1OC)CC(=O)N(CCCN(C)C[C@@H](O)COc1ccccc1C)CC2`, the IC50 in experiment [1] was 10400 nM.

`CCCCCCCCCCCCCCCCOC(=O)C1=C(C)NC(C)=C(C(=O)OCCCCCCCCCCCCCCCC)C1c1ccccc1[N+](=O)[O-]`: the IC50 in experiment [2] worked out at 2450 nM. Take `CN1C(=O)/C(=C2/SC(=S)N(N)C2=O)c2cc(Br)ccc21`: the IC50 in experiment [3] is 770 nM; in experiment [4] it was over 10000 nM. Consider `NN1C(=O)/C(=C2\C(=O)Nc3ccc(Br)cc32)SC1=S`, for which the IC50 in experiment [3] stood at 1800 nM; in experiment [4], 4670 nM.

Consider `COc1cc(/C=C/C(=O)OCCOCCNC(=O)/C=C/c2ccc(OC(C)=O)c(OC(C)=O)c2)ccc1OC(C)=O`, for which, in experiment [5], the inhibition came to 95%.

In general, IC50 refers to the concentration needed to halve the response being measured. One may read the inhibition as the relative decrease from the control value, in per cent. A lower inhibition goes with a weak effect.
